Reference: EPA's ToxRefDB 2

Legend:
[1] = test system: dog; settings: Sub-acute repeat dose toxicity; beagle; Oral; Gavage/Intubation; dose end: 30 day; group: systemic; systemic / in life observation / clinical signs / emesis + systemic / clinical chemistry / [other] / [other] + systemic / clinical chemistry…
[2] = test system: rat; settings: Sub-acute repeat dose toxicity, sprague dawley, Oral, Gavage/Intubation, dose end: 28 day, group: systemic
[3] = test system: dog; settings: Sub-acute repeat dose toxicity, beagle, Oral, Gavage/Intubation, dose end: 10 day, group: systemic
[4] = test system: rat; settings: Sub-acute repeat dose toxicity; sprague dawley; Oral; Gavage/Intubation; dose end: 10 day; group: systemic; systemic / clinical chemistry / sorbitol dehydrogenase / sorbitol dehydrogenase
[5] = test system: dog; settings: Chronic toxicity; beagle; Oral; Feed; dose end: 52 week; group: systemic; systemic / clinical chemistry / alkaline phosphatase (alp/alk) / alkaline phosphatase (alp/alk) + systemic / organ weight / liver / absolute…
[6] = test system: rat; settings: Subchronic oral toxicity in rodents, fischer, Feed, dose end: 13 week, group: systemic, systemic / clinical chemistry / cholesterol / cholesterol + systemic / organ weight / kidney / relative to body weight + systemic / organ …
[7] = test system: rat; settings: Combined chronic toxicity/carcinogenicity; fischer; Oral; Feed; dose end: 25 month; group: systemic; systemic / clinical chemistry / creatinine / creatinine + systemic / clinical chemistry / gamma glutamyl transpeptides (gtp) / gamma …
[8] = test system: rat; settings: Combined chronic toxicity/carcinogenicity, sprague dawley, Oral, Feed, dose end: 26 month, group: systemic
[9] = test system: rabbit; settings: Prenatal developmental toxicity study, dutch, Oral, Gavage/Intubation, dose end: 27 GD
[10] = test system: rat; settings: Subchronic oral toxicity in rodents, sprague dawley, Feed, dose end: 90 day, group: systemic, systemic / organ weight / liver / absolute + systemic / organ weight / liver / relative to body weight + systemic / organ weight / thyroid …
[11] = test system: mouse; settings: Subchronic oral toxicity in rodents, cd1, Feed, dose end: 13 week
[12] = test system: mouse; settings: Subchronic oral toxicity in rodents, cd1, Feed, dose end: 90 day, group: systemic
[13] = test system: mouse; settings: Carcinogenicity, cd1, Oral, Feed, dose end: 78 week, group: systemic
[14] = test system: dog; settings: Subchronic oral toxicity in nonrodent, beagle, Capsule, dose end: 96 day, group: systemic
[15] = test system: rat; settings: Subchronic oral toxicity in rodents, other, Feed, dose end: 90 day, group: systemic
[16] = test system: dog; settings: Chronic toxicity, beagle, Oral, Capsule, dose end: 52 week, group: systemic
[17] = test system: rat; settings: Subchronic oral toxicity in rodents, other, Feed, dose end: 90 day, group: systemic; remark: listed apart in the source
[18] = test system: mouse; settings: Combined chronic toxicity/carcinogenicity, cd1, Oral, Feed, dose end: 24 month
[19] = test system: rat; settings: Multigenerational reproductive toxicity study, sprague dawley, Oral, Feed, dose end: 2 generation
[20] = test system: rabbit; settings: Prenatal developmental toxicity study, Dutch, Oral, Gavage/Intubation, dose end: 18 GD
[21] = test system: rat; settings: Combined chronic toxicity/carcinogenicity, fischer, Oral, Feed, dose end: 2 year
[22] = test system: rat; settings: Combined chronic toxicity/carcinogenicity, fischer, Oral, Feed, dose end: 106 week
[23] = systemic / clinical chemistry / cholesterol / cholesterol + systemic / clinical chemistry / sorbitol dehydrogenase / sorbitol dehydrogenase…
[24] = systemic / organ weight / liver / absolute
[25] = systemic / in life observation / clinical signs / arrhythmia
[26] = systemic / in life observation / clinical signs / arrhythmia + systemic / in life observation / clinical signs / convulsions
[27] = systemic / pathology microscopic / kidney / nephropathy + systemic / pathology microscopic / liver / degeneration
[28] = systemic / pathology microscopic / kidney / nephropathy + systemic / pathology microscopic / liver / degeneration + systemic / pathology …
[29] = group: developmental, systemic / in life observation / body weight / fetal weight
[30] = group: maternal, reproductive / reproductive performance / aborted / aborted + systemic / in life observation / body weight / body weight gain + systemic / …
[31] = group: cholinesterase, cholinesterase / cholinesterase / cholinesterase / brain cholinesterase (che)
[32] = group: systemic, systemic / organ weight / liver / absolute + systemic / organ weight / liver / relative to body weight + systemic / organ weight / liver / …
[33] = systemic / pathology microscopic / liver / vacuolization
[34] = systemic / pathology microscopic / liver / vacuolization + systemic / hematology / erythrocyte (rbc) count differential / erythrocyte (rbc…
[35] = systemic / hematology / erythrocyte (rbc) count differential / erythrocyte (rbc) + systemic / hematology / hematocrit (hct) / hematocrit (…
[36] = systemic / in life observation / body weight / body weight gain + systemic / in life observation / food consumption / food efficiency
[37] = systemic / in life observation / body weight / body weight gain + systemic / in life observation / food consumption / food efficiency + …
[38] = systemic / in life observation / clinical signs / abdominogenital staining + systemic / in life observation / clinical signs / urinary …
[39] = systemic / in life observation / clinical signs / abdominogenital staining + systemic / in life observation / water consumption / water …
[40] = systemic / organ weight / spleen / relative to body weight
[41] = group: cholinesterase, cholinesterase / cholinesterase / cholinesterase / brain cholinesterase (che) + cholinesterase / cholinesterase / cholinesterase / …
[42] = group: systemic, systemic / in life observation / clinical signs / urine staining - perineum
[43] = group: systemic, systemic / in life observation / clinical signs / vaginal discharge + systemic / in life observation / clinical signs / urine staining - …
[44] = group: cholinesterase, cholinesterase / cholinesterase / cholinesterase / brain cholinesterase (che) + cholinesterase / cholinesterase / cholinesterase / plasma …
[45] = group: offspring, systemic / in life observation / body weight / offspring (pup) weight + systemic / pathology microscopic / kidney / dilatation
[46] = group: parental, systemic / pathology gross / lung / discolored + systemic / pathology microscopic / lung / hyperplasia + systemic / pathology microscopic / …
[47] = group: reproductive, reproductive / offspring survival early / birth index / birth index
[48] = group: cholinesterase, cholinesterase / cholinesterase / cholinesterase / erythrocyte cholinesterase (che) + cholinesterase / cholinesterase / cholinesterase / …
[49] = group: developmental, developmental / developmental malformation / bone / delayed ossification + systemic / in life observation / body weight / fetal weight
[50] = group: maternal, reproductive / reproductive performance / resorptions / resorptions + reproductive / reproductive performance / aborted / aborted + systemic…
[51] = group: systemic, systemic / in life observation / body weight / body weight + systemic / in life observation / body weight / body weight gain + systemic / …
[52] = group: cholinesterase, cholinesterase / cholinesterase / cholinesterase / plasma cholinesterase (che) + cholinesterase / cholinesterase / cholinesterase / brain …
[53] = group: systemic, systemic / hematology / hematocrit (hct) / hematocrit (hct) + systemic / hematology / mean corpuscular (cell) volume (mcv) / mean …

Cc1nc(C)nc(N2C[C@@H](C)N(c3ccnc([C@@H](C)O)n3)[C@@H](C)C2)n1
LEL [1]: 6 mg/kg/day
LOAEL [1]: > 6 mg/kg/day
NEL [1]: < 6 mg/kg/day
NOAEL [1]: ≥ 6 mg/kg/day
LOAEL [2, 23]: > 20 mg/kg/day
NOAEL [2, 23]: ≥ 20 mg/kg/day
LEL [2, 24]: 2 mg/kg/day
NEL [2, 24]: < 2 mg/kg/day
LEL [3, 25]: 1 mg/kg/day
NEL [3, 25]: < 1 mg/kg/day
LOAEL [3, 26]: > 6 mg/kg/day
NOAEL [3, 26]: ≥ 6 mg/kg/day
LEL [4]: 1 mg/kg/day
LOAEL [4]: > 10 mg/kg/day
NEL [4]: < 1 mg/kg/day
NOAEL [4]: ≥ 10 mg/kg/day

CCCCOCN(C(=O)CCl)c1c(CC)cccc1CC [Butachlor]
LEL [5]: 25 mg/kg/day
LOAEL [5]: 25 mg/kg/day
NEL [5]: 5 mg/kg/day
NOAEL [5]: 5 mg/kg/day
LEL [6]: 58.7 mg/kg/day
LOAEL [6]: 58.7 mg/kg/day
NEL [6]: 17.5 mg/kg/day
NOAEL [6]: 17.5 mg/kg/day
LEL [7]: 37.1 mg/kg/day
LOAEL [7]: 37.1 mg/kg/day
NEL [7]: 3.65 mg/kg/day
NOAEL [7]: 3.65 mg/kg/day
LOAEL [8, 27]: 4.5 mg/kg/day
NOAEL [8, 27]: < 4.5 mg/kg/day
LEL [8, 28]: 4.5 mg/kg/day
NEL [8, 28]: < 4.5 mg/kg/day
LEL [9, 29]: 150 mg/kg/day
LOAEL [9, 29]: 150 mg/kg/day
NEL [9, 29]: 50 mg/kg/day
NOAEL [9, 29]: 50 mg/kg/day
LEL [9, 30]: 150 mg/kg/day
LOAEL [9, 30]: 150 mg/kg/day
NEL [9, 30]: 50 mg/kg/day
NOAEL [9, 30]: 50 mg/kg/day
LEL [10]: 50 mg/kg/day
LOAEL [10]: 50 mg/kg/day
NEL [10]: < 50 mg/kg/day
NOAEL [10]: < 50 mg/kg/day
LEL [11, 31]: 150 mg/kg/day
LOAEL [11, 31]: > 900 mg/kg/day
NEL [11, 31]: < 150 mg/kg/day
NOAEL [11, 31]: ≥ 900 mg/kg/day
LEL [11, 32]: 150 mg/kg/day
LOAEL [11, 32]: 150 mg/kg/day
NEL [11, 32]: < 150 mg/kg/day
NOAEL [11, 32]: < 150 mg/kg/day

CCOC(=O)COc1cc(-n2ncc(C(F)(F)F)c(C)c2=O)c(F)cc1Cl [Flufenpyr-ethyl]
LEL [12, 33]: 395 mg/kg/day
LOAEL [12, 33]: 395 mg/kg/day
NEL [12, 34]: 128 mg/kg/day
NOAEL [12, 34]: 128 mg/kg/day
LOAEL [13, 35]: 402 mg/kg/day
NOAEL [13, 35]: 39.9 mg/kg/day
LEL [13, 33]: 397 mg/kg/day
NEL [13, 33]: 43.5 mg/kg/day
LOAEL [14, 36]: 1000 mg/kg/day
LEL [14, 37]: 100 mg/kg/day
NEL [14, 37]: < 100 mg/kg/day
NOAEL [14, 37]: 300 mg/kg/day
LOAEL [15, 38]: 595 mg/kg/day
NOAEL [15, 38]: 55 mg/kg/day
LEL [15, 39]: 55 mg/kg/day
NEL [15, 39]: < 55 mg/kg/day
LOAEL ([16]; systemic / in life observation / body weight / body weight gain): 1000 mg/kg/day
LEL [16, 36]: 200 mg/kg/day
NEL [16, 36]: 50 mg/kg/day
NOAEL [16, 36]: 200 mg/kg/day
LOAEL ([17]; systemic / in life observation / clinical signs / body surface staining + systemic / in life observation / clinical signs / urinary …): 414 mg/kg/day
LEL [17, 40]: 39 mg/kg/day
NEL [17, 40]: < 39 mg/kg/day
NOAEL ([17]; systemic / organ weight / spleen / relative to body weight + systemic / in life observation / clinical signs / body surface staining + …): 134 mg/kg/day

COP(=O)(OC)C(O)C(Cl)(Cl)Cl (stereo not drawn) [Trichlorfon]
LEL [18, 41]: 45 mg/kg/day
LOAEL [18, 41]: 45 mg/kg/day
NEL [18, 41]: < 45 mg/kg/day
NOAEL [18, 41]: < 45 mg/kg/day
LEL [18, 42]: 45 mg/kg/day
NEL [18, 42]: < 45 mg/kg/day
LOAEL [18, 43]: > 405 mg/kg/day
NOAEL [18, 43]: ≥ 405 mg/kg/day
LEL [19, 44]: 15 mg/kg/day
LOAEL [19, 44]: 15 mg/kg/day
NEL [19, 44]: < 15 mg/kg/day
NOAEL [19, 44]: < 15 mg/kg/day
LEL [19, 45]: 175 mg/kg/day
LOAEL [19, 45]: 175 mg/kg/day
NEL [19, 45]: 50 mg/kg/day
NOAEL [19, 45]: 50 mg/kg/day
LEL [19, 46]: 175 mg/kg/day
LOAEL [19, 46]: > 175 mg/kg/day
NEL [19, 46]: 50 mg/kg/day
NOAEL [19, 46]: ≥ 175 mg/kg/day
LOAEL [19, 47]: 175 mg/kg/day
NEL [19, 47]: 50 mg/kg/day
NOAEL [19, 47]: 50 mg/kg/day
LEL ([19]; group: reproductive, reproductive / offspring survival early / birth index / birth index + reproductive / offspring survival early / litter size / litter size): 175 mg/kg/day
LEL [20, 48]: 35 mg/kg/day
LOAEL [20, 48]: 35 mg/kg/day
NEL [20, 48]: 10 mg/kg/day
NOAEL [20, 48]: 10 mg/kg/day
LEL [20, 49]: 110 mg/kg/day
LOAEL [20, 49]: 110 mg/kg/day
NEL [20, 49]: 35 mg/kg/day
NOAEL [20, 49]: 35 mg/kg/day
LEL ([20]; group: maternal, reproductive / reproductive performance / aborted / aborted + systemic / in life observation / clinical signs / altered breathing rate + …): 35 mg/kg/day
LOAEL ([20]; group: maternal, reproductive / reproductive performance / resorptions / resorptions): 110 mg/kg/day
NEL [20, 50]: 10 mg/kg/day
NOAEL [20, 50]: 35 mg/kg/day
LEL [21, 41]: 129 mg/kg/day
LOAEL [21, 41]: 129 mg/kg/day
NEL [21, 41]: < 129 mg/kg/day
NOAEL [21, 41]: < 129 mg/kg/day
LEL [21, 51]: 129 mg/kg/day
LOAEL [21, 51]: 129 mg/kg/day
NEL [21, 51]: < 129 mg/kg/day
NOAEL [21, 51]: < 129 mg/kg/day
LEL [22, 52]: 15 mg/kg/day
LOAEL [22, 52]: 15 mg/kg/day
NEL [22, 52]: 5 mg/kg/day
NOAEL [22, 52]: 5 mg/kg/day
LEL [22, 53]: 15 mg/kg/day
LOAEL [22, 53]: 15 mg/kg/day
NEL [22, 53]: 5 mg/kg/day
NOAEL [22, 53]: 5 mg/kg/day
